The values that follow come from PMC7162861, “Synthesis, cytotoxicity, pharmacokinetic profile, binding with DNA and BSA of new imidazo[1,2-a]pyrazine-benzo[d]imidazol-5-yl hybrids” (Scientific Reports, 2020).

Data set [1] can be described thus: Experimental log P, shake-flask method. In kind it is physicochemical. The note with it: n-octanol/phosphate buffer pH 7.4, read-out: Exp. Log P. As for the experimental part:
Partition coefficients or experimental log P values of all synthesized compounds (9–23, 30 and 31) were calculated using the shake-flask method. Log P values were determined using n-octanol and phosphate buffer (pH = 7.4) at 10:1 ratio of volumes. Stock solutions (10^−3 M) of compounds were prepared in DMSO. Glass vials were used to make final solutions i.e. stock solution (250 µL) and phosphate buffer (125 µL). To record the absorbance, wavelength was selected based on λmax of the respective compound. Initial absorbance (Ai) for every compound was noted consuming the stock solution in the buffer phase. Now added n-octanol to every vial and shaken well using a mechanical shaker for 50 minutes. To get separation of both phases, glass vials were centrifuged for 35 min. at 2500 rpm. Then, the layer of octanol was separated from glass vial. The final absorbance (Af) of each compound was recorded by using the buffer layer. The values of P for compounds were determined by the following equation (Eq. 8):8 P=Ai−Af/Af×Vw/Vo

As usually defined, the melting point is the temperature of the solid-liquid transition. `O=Cc1ccc(-c2cn3ccnc3c(-c3ccc4c(c3)ncn4C3CCCCC3)n2)cc1` [Compound 11, 4-(8-(1-cyclohexyl-1H-benzo[d]imidazol-5-yl)imidazo[1,2-a]pyrazin-6-yl)benzaldehyde] showed a melting point of 201 to 203 °C. For the same compound, the logP in data set [1] is 0.23.

The compound `Cc1cccc(-c2cn3ccnc3c(-c3ccc4c(c3)ncn4C3CCCCC3)n2)c1` [Compound 15, 8-(1-cyclohexyl-1H-benzo[d]imidazol-5-yl)-6-(m-tolyl)imidazo[1,2-a]pyrazine] gave a melting point of 183 to 186 °C. The logP in data set [1] came to 1.54.

`CCc1ccc(-c2cn3ccnc3c(-c3ccc4c(c3)ncn4C3CCCCC3)n2)cc1` [Compound 16, 8-(1-cyclohexyl-1H-benzo[d]imidazol-5-yl)-6-(4-ethylphenyl)imidazo[1,2-a]pyrazine] returned a melting point of 182 to 185 °C. In addition, in data set [1], the logP is 1.74.

`CC(=O)c1ccc(-c2cn3ccnc3c(-c3ccc4c(c3)ncn4C3CCCCC3)n2)cc1` [Compound 17, 1-(4-(8-(1-cyclohexyl-1H-benzo[d]imidazol-5-yl)imidazo[1,2-a]pyrazin-6-yl)phenyl)ethan-1-one] displayed a melting point of 200 to 203 °C. Moreover, the logP in data set [1] was found to be 1.41.

`Clc1ccc(-c2cn3ccnc3c(-c3ccc4c(c3)ncn4C3CCCCC3)n2)cc1` [Compound 18, 6-(4-chlorophenyl)-8-(1-cyclohexyl-1H-benzo[d]imidazol-5-yl)imidazo[1,2-a]pyrazine] returned a melting point of 193 to 196 °C. For the same compound, in data set [1], the logP came out at 1.34.

`Brc1ccc(-c2cn3ccnc3c(-c3ccc4c(c3)ncn4C3CCCCC3)n2)cc1` [Compound 19, 6-(4-bromophenyl)-8-(1-cyclohexyl-1H-benzo[d]imidazol-5-yl)imidazo[1,2-a]pyrazine] came in with a melting point of 195 to 198 °C. Moreover, the logP in data set [1] is 2.05.

`COc1ccccc1-c1cn2ccnc2c(-c2ccc3c(c2)ncn3C2CCCCC2)n1` [Compound 20, 8-(1-cyclohexyl-1H-benzo[d]imidazol-5-yl)-6-(2-methoxyphenyl)imidazo[1,2-a]pyrazine] showed a melting point of 195 to 198 °C. The logP in data set [1] is 1.88.

Turning to `Fc1ccccc1-c1cn2ccnc2c(-c2ccc3c(c2)ncn3C2CCCCC2)n1` [Compound 21, 8-(1-cyclohexyl-1H-benzo[d]imidazol-5-yl)-6-(2-fluorophenyl)imidazo[1,2-a]pyrazine], the melting point is 190 to 193 °C. In data set [1], the logP stood at 1.77.

Consider `FC(F)(F)c1cccc(-c2cn3ccnc3c(-c3ccc4c(c3)ncn4C3CCCCC3)n2)c1` [Compound 23, 8-(1-cyclohexyl-1H-benzo[d]imidazol-5-yl)-6-(3-(trifluoromethyl)phenyl)imidazo[1,2-a]pyrazine], for which the melting point lay in the range of 196 to 199 °C. In data set [1], the logP worked out at 1.67.
